The source of these data is patent US20210147343A1 (priority 2018, published 2021).

SMILES strings stand for the structures. Where two headings read alike, the source gives them in different places.

A word on the IC50: it is the concentration that gives 50% inhibition. Usually EC50 stands for the concentration needed to bring the measured effect to its halfway point.

Test [1] has as its target T1, mu opioid receptor (MOR) (Homo sapiens, UniProt P35372). The test can be described thus: MOR cAMP antagonist assay. The test is classed as cell-based. On the set-up: host or cells: CHO-K1. The text has this:
MOR cAMP Antagonist Assay

For test [2], the target named is T1, mu opioid receptor (MOR). The test can be described thus: MOR GTPγS agonist assay. The class given is biochemical. Also noted: host or cells: CHO-K1. The text has this:
Membranes obtained from the stable cell lines over-expressing MOR were subjected to GTPγS assay using SPA beads (Perkin Elmer, Cat #RPNQ0001).

Test [3] has as its target T1, mu opioid receptor (MOR). As to the kind of experiment: MOR cAMP agonist assay.
Test [4] has as its system Male Sprague-Dawley rats. The test can be described thus: Hot plate assay. The conditions noted are these: rat, SC. The class given is in vivo. The protocol:
Male Sprague-Dawley rats weighing 275-300 grams were used in the study, n=8-10 per group. Animals are injected SC with 0.9% normal saline solution. At 15, 45, and 80 min after the injection, animals were placed onto a hotplate set to 52 degrees centigrade, and baseline latency is recorded (baseline latency=average time to 2nd withdrawal response consisting of either a lick of a rear paw, shaking a rear paw, backwards walking or jumping). A day later animals were injected SC with test compounds either in vehicle solution, or with a mix of compounds in solution. Next the test latency was recorded (test latency=time to withdrawal on the hotplate measured at 15, 45, 80, 120, 180 and 240 min using the procedure described). Times were then converted to % maximum possible effect (% MPE)=(test_latecy−baseline_latency)/(30 sec-baseline_latency); where 30 sec is the cutoff where the animal is removed if no response ifs observed as it is the time point at which injury is expected to occur.

Test [5] has as its target T2, kappa opioid receptor (KOR) (Homo sapiens, UniProt P41145).
T2 construct: host or cells: CHO-K1
The test can be described thus: cell-based. The conditions noted are these: kOR cAMP IC50, CHO-K1 cells expressing kOR; after activation with dynorphin B. The text has this: KOR cAMP Antagonist Assay

Where [6] appears, read: membranes of CHO cells over-expressing MOR, SPA beads, read-out: MOR GTPγS EC50.

T2 sequence (P41145 whole entry): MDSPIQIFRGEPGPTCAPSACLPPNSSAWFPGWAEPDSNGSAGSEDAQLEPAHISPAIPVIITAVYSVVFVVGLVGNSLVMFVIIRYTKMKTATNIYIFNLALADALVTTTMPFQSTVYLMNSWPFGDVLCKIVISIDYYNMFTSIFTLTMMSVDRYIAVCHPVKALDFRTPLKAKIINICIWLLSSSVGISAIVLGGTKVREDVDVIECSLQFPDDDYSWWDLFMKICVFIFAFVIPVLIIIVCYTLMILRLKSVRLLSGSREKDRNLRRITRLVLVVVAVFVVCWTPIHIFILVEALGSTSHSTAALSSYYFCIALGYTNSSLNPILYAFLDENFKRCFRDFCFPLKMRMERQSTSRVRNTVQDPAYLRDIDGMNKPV
T1 sequence (P35372 whole entry): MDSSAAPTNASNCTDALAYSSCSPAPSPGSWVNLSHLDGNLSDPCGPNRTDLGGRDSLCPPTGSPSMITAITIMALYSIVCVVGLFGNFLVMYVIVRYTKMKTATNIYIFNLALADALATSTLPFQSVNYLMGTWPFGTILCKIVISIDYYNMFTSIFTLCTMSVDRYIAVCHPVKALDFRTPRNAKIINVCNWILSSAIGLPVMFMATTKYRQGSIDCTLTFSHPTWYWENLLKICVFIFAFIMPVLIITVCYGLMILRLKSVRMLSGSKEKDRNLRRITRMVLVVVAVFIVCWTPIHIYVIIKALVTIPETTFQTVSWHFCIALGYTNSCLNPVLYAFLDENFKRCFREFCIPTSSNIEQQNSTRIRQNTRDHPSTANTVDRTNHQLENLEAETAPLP

Turning to `C[C@H](CC(=O)NC[C@H](Cc1ccc2c(c1)CC(=O)N2)N(C)C)c1ccccc1` [Compound A-22, (R)—N—((S)-2-(dimethylamino)-3-(2-oxoindolin-5-yl)propyl)-3-phenylbutanamide], the IC50 in test [1] was less than 100 nM. The EC50 in test [2] (setting [6]) is less than 100 nM.

`CN(C)[C@H](CNC(=O)[C@@H]1C[C@]1(C)c1ccccc1)Cc1ccc(O)cc1Cl` [Compound B-15, (1R,2S)—N—((S)-3-(2-chloro-4-hydroxyphenyl)-2-(dimethylamino)-propyl)-2-methyl-2-phenylcyclopropane-1-carboxamide] yielded an EC50 in test [3] of more than 1000 nM. Moreover, the “effect on the analgesic activity of agonist Compound B-56 in the hotplate test” value in test [4] (co-dosed with Compound B-56, FIG. 1) is given as “blocks”. For the same compound, the “effect on its own in the hotplate test” value in test [4] (dosed alone, FIG. 1) was “no effect”. The IC50 in test [5] is more than 1000 nM.

Take `CN(C)[C@H](CNC(=O)[C@@H]1C[C@]1(C)c1ccccc1)Cc1ccc(O)c(F)c1` [Compound B-30, (1R,2S)—N—((S)-2-(dimethylamino)-3-(3-fluoro-4-hydroxyphenyl)propyl)-2-methyl-2-phenylcyclopropane-1-carboxamide]: the IC50 in test [1] and in test [5] was less than 100 nM in each case.

`CN(C)[C@H](CNC(=O)[C@@H]1C[C@]1(C)c1ccccc1)Cc1ccc(O)cc1F` [Compound B-31, (1R,2S)—N—((S)-2-(dimethylamino)-3-(2-fluoro-4-hydroxyphenyl)propyl)-2-methyl-2-phenylcyclopropane-1-carboxamide]: the EC50 in test [3] was less than 100 nM. Besides, the IC50 in test [1] and in test [5] was less than 100 nM in each case.

With `Cc1cc(C[C@@H](CNC(=O)[C@@H]2C[C@]2(C)c2ccccc2)N(C)C)cc(C)c1O` [Compound B-36, (1R,2S)—N—((S)-2-(dimethylamino)-3-(4-hydroxy-3,5-dimethylphenyl)propyl)-2-methyl-2-phenylcyclopropane-1-carboxamide], the IC50 in test [1] and in test [5] was less than 100 nM each time.

As for `CCN(CC)[C@H](CNC(=O)[C@@H]1C[C@]1(C)c1ccccc1)Cc1ccc(O)c(C)c1` [Compound B-41, (1R,2S)—N—((S)-2-(diethylamino)-3-(4-hydroxy-3-methylphenyl)propyl)-2-methyl-2-phenylcyclopropane-1-carboxamide], the EC50 in test [3] was less than 100 nM. For the same compound, the IC50 in test [1] and in test [5] was 100 to 1000 nM throughout.

For the compound `Cc1cc(C[C@@H](CNC(=O)[C@@H]2C[C@]2(C)c2ccccc2)N(C)C)ccc1O` [Compound B-42, (1R,2S)—N—((S)-2-(dimethylamino)-3-(4-hydroxy-3-methylphenyl)propyl)-2-methyl-2-phenylcyclopropane-1-carboxamide], the EC50 in test [3] is less than 100 nM. The IC50 in test [1] was less than 100 nM; in test [5], 100 to 1000 nM.

For `Cc1cc(O)cc(C)c1C[C@@H](CNC(=O)[C@@H]1C[C@]1(C)c1ccccc1)N(C)C` [Compound B-47, (1R,2S)—N—((S)-2-(dimethylamino)-3-(4-hydroxy-2,6-dimethylphenyl)-propyl)-2-methyl-2-phenylcyclopropane-1-carboxamide], in test [3], the EC50 was less than 100 nM. In test [1], the IC50 was less than 100 nM.

For the compound `Cc1cc(O)ccc1C[C@@H](CNC(=O)[C@@H]1C[C@]1(C)c1ccccc1)N(C)C` [Compound B-48, (1R,2S)—N—((S)-2-(dimethylamino)-3-(4-hydroxy-2-methylphenyl)propyl)-2-methyl-2-phenylcyclopropane-1-carboxamide], the EC50 in test [3] is more than 1000 nM. Further, the IC50 in test [1] and in test [5] was less than 100 nM each time.

In the case of `CN(C)[C@H](CNC(=O)[C@@H]1C[C@]1(C)c1ccccc1)Cc1ccc(O)c(Cl)c1` [Compound B-55, (1R,2S)—N—((S)-3-(3-chloro-4-hydroxyphenyl)-2-(dimethylamino)-propyl)-2-methyl-2-phenylcyclopropane-1-carboxamide], the IC50 in test [1] and in test [5] was less than 100 nM each time.

As for `CN(C)[C@H](CNC(=O)c1cccc(Cl)c1)Cc1ccc(O)cc1Cl` [Compound C-22], the IC50 was more than 1000 nM in test [1] and 100 to 1000 nM in test [5]. Besides, the EC50 in test [2] (setting [6]) was less than 100 nM.

Consider `Cc1cc(O)cc(C)c1C[C@@H](CNC(=O)c1ccc(Cl)c(Cl)c1)N(C)C` [Compound C-24, (S)-3,4-dichloro-N-(2-(dimethylamino)-3-(4-hydroxy-2,6-dimethylphenyl)propyl)benzamide], for which the IC50 in test [1] and in test [5] was less than 100 nM each time. Also, the EC50 in test [2] (setting [6]) is less than 100 nM.

In the case of `Cc1cc(O)cc(C)c1C[C@@H](CNC(=O)c1ccc(C(F)(F)F)c(Cl)c1)N(C)C` [Compound C-26], in test [1], the IC50 is less than 100 nM. Besides, in test [2] (setting [6]), the EC50 is less than 100 nM.

For the compound `Cc1cc(O)cc(C)c1C[C@@H](CNC(=O)c1ccc(Cl)c(C(F)(F)F)c1)N(C)C` [Compound C-27], the IC50 in test [1] was less than 100 nM. The half-maximal effective concentration (EC50) in test [2] (setting [6]) was less than 100 nM.

In test [1], `Cc1ccc(C(=O)NC[C@H](Cc2c(C)cc(O)cc2C)N(C)C)cc1C` [Compound C-28] yielded an IC50 of less than 100 nM. The EC50 in test [2] (setting [6]) was less than 100 nM.

For the compound `Cc1cc(O)cc(C)c1C[C@@H](CNC(=O)c1ccc(C(F)(F)F)c(F)c1)N(C)C` [Compound C-30], the half-maximal inhibitory concentration (IC50) in test [1] is less than 100 nM. The half-maximal effective concentration (EC50) in test [2] (setting [6]) is less than 100 nM.

Turning to `Cc1cc(O)cc(C)c1C[C@@H](CNC(=O)c1ccc2occc2c1)N(C)C` [Compound C-31], the IC50 in test [1] is less than 100 nM. The EC50 in test [2] (setting [6]) is less than 100 nM.

Take `Cc1cc(O)cc(C)c1C[C@@H](CNC(=O)c1ccc(C(F)(F)F)cc1)N(C)C` [Compound C-32, (S)—N-(2-(dimethylamino)-3-(4-hydroxy-2,6-dimethylphenyl)propyl)-4-(trifluoromethyl)benzamide]: the IC50 in test [1] was in the range of 100 to 1000 nM. Moreover, the EC50 in test [2] (setting [6]) is less than 100 nM.

The compound `Cc1cc(O)cc(C)c1C[C@@H](CNC(=O)c1ccc2ccccc2c1)N(C)C` [Compound C-33] had an IC50 in test [1] of less than 100 nM. The EC50 in test [2] (setting [6]) is less than 100 nM.

Compound `Cc1cc(O)cc(C)c1C[C@@H](CNC(=O)c1nccc2ccccc12)N(C)C` [Compound C-34] yielded an IC50 in test [1] of less than 100 nM. Also, the EC50 in test [2] (setting [6]) was less than 100 nM.

In the case of `Cc1cc(O)cc(C)c1C[C@@H](CNC(=O)c1cc2ccccc2cn1)N(C)C` [Compound C-35], the IC50 in test [1] was less than 100 nM. The EC50 in test [2] (setting [6]) was less than 100 nM.

`CNC(=O)c1ccc(C[C@@H](CNC(=O)c2ccc(Cl)c(Cl)c2)N(C)C)cc1F` [Compound C-39] yielded a half-maximal inhibitory concentration (IC50) in test [1] of less than 100 nM. Moreover, the half-maximal effective concentration (EC50) in test [2] (setting [6]) was less than 100 nM.

`CNC(=O)c1ccc(C[C@@H](CNC(=O)c2ccc(C)cc2C)N(C)C)cc1F` [Compound C-40]: the IC50 in test [1] is less than 100 nM; in test [5] it was more than 1000 nM. The EC50 in test [2] (setting [6]) is less than 100 nM.

With `CN1Cc2cc(O)ccc2C[C@H]1CNC(=O)c1ccc(Cl)c(Cl)c1` [Compound C-54], the IC50 in test [1] was less than 100 nM. In test [2] (setting [6]), the EC50 is less than 100 nM.

The compound `Cc1cc(O)cc(C)c1C[C@@H](CNC(=O)c1cc(Cl)c(Cl)cc1F)N(C)C` [Compound C-57, (S)-4,5-dichloro-N-(2-(dimethylamino)-3-(4-hydroxy-2,6-dimethylphenyl)propyl)-2-fluorobenzamide] came in with an IC50 in test [1] of less than 100 nM. The EC50 in test [2] (setting [6]) was less than 100 nM.

As to `O=C(NC[C@H](Cc1ccc2[nH]ncc2c1)N1CCCC1)c1ccc(Cl)c(Cl)c1` [Compound C-59, (S)—N-(3-(1H-indazol-5-yl)-2-(pyrrolidin-1-yl)propyl)-3,4-dichlorobenzamide], the IC50 in test [1] was less than 100 nM. Also, the EC50 in test [2] (setting [6]) fell in the range of 100 to 1000 nM.

`O=C(NC[C@@H]1Cc2ccc(O)cc2CN1)c1ccc(Cl)c(Cl)c1` [Compound C-60, (S)-3,4-dichloro-N-((7-hydroxy-1,2,3,4-tetrahydroisoquinolin-3-yl)methyl)benzamide] showed an IC50 in test [1] of less than 100 nM. Further, the 50% effective concentration (EC50) in test [2] (setting [6]) was less than 100 nM.

In turn, `CN(C)[C@H](CNC(=O)c1ccc(Cl)c(Cl)c1)Cc1ccc(O)c(Cl)c1` [Compound C-61, (S)-3,4-dichloro-N-(3-(3-chloro-4-hydroxyphenyl)-2-(dimethylamino)propyl)benzamide] came in with an IC50 in test [1] of less than 100 nM. Also, the EC50 in test [2] (setting [6]) is less than 100 nM.

Regarding `CCN(CC)[C@H](CNC(=O)c1ccc(Cl)c(Cl)c1)Cc1ccc2[nH]ncc2c1` [Compound C-64], the IC50 in test [1] was less than 100 nM. Further, the EC50 in test [2] (setting [6]) was less than 100 nM.

`CN(C)[C@H](CNC(=O)c1ccccc1-c1ccccc1)Cc1ccc(O)cc1` [Compound C-66, (S)—N-(2-(dimethylamino)-3-(4-hydroxyphenyl)propyl)-[1,1′-biphenyl]-2-carboxamide]: the IC50 in test [1] (CHO-K1 cells expressing mOR, after activation with DAMGO at the EC80, read-out: MOR cAMP IC50) is more than 1000 nM; in test [5] it was 100 to 1000 nM. The compound further displayed an EC50 in test [2] of more than 1000 nM.
